Experiments:
[1] = test system: ACI-to-Lewis rat aortic allograft; assay: Rat aortic allograft model (graft arteriosclerosis); format: in vivo; conditions: for percent inhibition of IM ratio / percent inhibition of the % LN (luminal narrowing): day 90, vs vehicle control
Procedure: Compound A was evaluated for graft arteriosclerosis resulting from aortic heterotropic transplantation. This is a model of graft arteriopathy which is the major obstacle to long term success of solid organ transplantation.
Donor descending aortas from ACI rats were heterotypically transplanted into Lewis rat abdomens in end-to-end fashion with minimal ischemic time. 55 rats were assigned to five groups as follows:
(§1) Compound A was administered subcutaneously to recipient animals three days prior to the surgery and once daily for 90 days thereafter. […] Thereafter, the dose was reduced to 30 mg/kg/d for 6 days and then further reduced to 5 mg/kg/d for the remainder of the study.
On day 90, the allograft segment was removed, fixed in 10% buffered formal in and paraffin embedded. Sections were stained with von Geisson's elastic stain, and intima-to-media area (IM) ratio and percent luminal narrowing (% LN) were assessed by digital morphometry (See FIGS. 1 and 2). Blood was collected at regular intervals throughout the study and plasma evaluated for compound levels (See FIG. 3).

[2] = Tolerability in rat aortic allograft study; format: in vivo
Procedure: as §1
The group receiving the 40/30/5 mg/kg/d dose of Compound A evidenced the highest degree of inhibition despite the fact that it received only a 40 mg/kg/d dose for 13 days prior to dosing down. […] After 90 days of dosing, the trough plasma levels were 10, 18 and 28 uM for the 10,20 and 40/30/5 mg/kg/d doses, respectively.

[3] = test system: human aortic smooth muscle cells (AoSMC); assay: Smooth muscle cell proliferation inhibition (3H-thymidine incorporation); format: cell-based; conditions: 5% serum-stimulated AoSMC, 20 hr incubation, read-out: SMC Proliferation Inhibition (IC50)
Procedure: Cultured human aortic smooth muscle cells (AoSMC) were obtained from Clonetics, Inc. and were used below passage 10. Cells were seeded in 24-well plates. When cells were 80% confluent, they were made quiescent by adding media containing 0.2% serum (as compared to 5% serum in normal culture media) for 48 hours. The cells were then stimulated by 5% serum in the presence or absence of compounds dissolved in DMSO. To establish a dose curve and IC50 for each compound, multiple concentrations (20,15,10,5 μM) were used. Rapamycin (at 1 and 0.1 μM) was used as a positive control for the assay. After a 20 hr incubation with or without test compounds, ^3H-thymidine (0.5 μCi/per well) was added to the cells for 4 hours of labeling. Washed cells were then lysed in NaOH and the amount of^3H-thymidine incorporation was determined by a scintillation counter.

[4] = background statement; cited from earlier work
[5] = 20 mg and 40/30/5 mg/kg/d doses

**Q.** For `CC(C)(Sc1cc(C(C)(C)C)c(O)c(C(C)(C)C)c1)Sc1cc(C(C)(C)C)c(OCCCC(=O)O)c(C(C)(C)C)c1` [Compound A, 4-[4-[[1-[[3,5-bis(1,1-dimethylethyl)-4-hydroxyphenyl]thio]-1-methylethyl]thio]-2,6-bis(1,1-dimethylethyl)phenoxy]butyric acid], which “percent inhibition of IM ratio” value ([1]; 10 mg/kg/d subcutaneous) is on record?
**A.** 11%

**Q.** And the “percent inhibition of the % LN (luminal narrowing)” value (“percent inhibition of the % LN” for short) ([1]; 10 mg/kg/d subcutaneous)?
**A.** 22%

**Q.** What about the “% LN compared to the vehicle group” value [1, 5] of the same compound?
**A.** significantly lower

**Q.** What about the “IM ratio compared to the vehicle group” value [1, 5] of the same compound?
**A.** significantly lower

**Q.** And the “percent inhibition of IM ratio” value ([1]; 20 mg/kg/d subcutaneous)?
**A.** 28%

**Q.** And the “percent inhibition of the % LN” value ([1]; 20 mg/kg/d subcutaneous)?
**A.** 33%

**Q.** What about the “inhibition of aortic neointimal growth” value ([1]; 10, 20, 40/30/5 mg/kg/d) of the same compound?
**A.** dose-dependent inhibition

**Q.** What about the “percent inhibition of IM ratio” value ([1]; 40/30/5 mg/kg/d subcutaneous) of the same compound?
**A.** 49%

**Q.** What about the “percent inhibition of the % LN” value ([1]; 40/30/5 mg/kg/d subcutaneous) of the same compound?
**A.** 52%

**Q.** What about the toxic side effects ([2]; 20 mg/kg/d) of the same compound?
**A.** without grossly discemable toxic side effects

**Q.** And the body weight change ([2]; 40 mg/kg/d group, until dose dropped to 5 mg/kg/d)?
**A.** initially lost weight

**Q.** What about the “adverse findings leading to dose reduction” value ([2]; 40 mg/kg/d subcutaneous, 13 days) of the same compound?
**A.** failure to gain weight and skin irritation

**Q.** What about the tolerability of treatment ([2]; 10 and 20 mg/kg/d subcutaneous) of the same compound?
**A.** well tolerated

**Q.** And the IC50 [3]?
**A.** 5.5 µM

**Q.** With `CCOC(=O)CC[C@H](NCC(O)COc1c(C(C)(C)C)cc(SC(C)(C)Sc2cc(C(C)(C)C)c(O)c(C(C)(C)C)c2)cc1C(C)(C)C)C(=O)OCC` (some centres unmarked) [E] as the compound, how does the IC50 [3] read?
**A.** 3.7 µM

**Q.** For `CC(C)(Sc1cc(C(C)(C)C)c(O)c(C(C)(C)C)c1)Sc1cc(C(C)(C)C)c(OC(=O)CN)c(C(C)(C)C)c1` [Compound I], which IC50 [3] is on record?
**A.** 8 µM

**Q.** With `C=CC[C@@H]1/C=C(\C)C[C@H](C)C[C@H](OC)[C@H]2O[C@@](O)(C(=O)C(=O)N3CCCC[C@H]3C(=O)O[C@H](/C(C)=C/[C@@H]3CC[C@@H](O)[C@H](OC)C3)[C@H](C)[C@@H](O)CC1=O)[C@H](C)C[C@@H]2OC` [FK506, tacrolimus] as the compound, how does the “immunosuppressive activity relative to cyclosporin” value [4] read?
**A.** 10-100 times
